Results reported in ChEMBL document CHEMBL4819087, “Identification and optimization of 3-bromo-N'-(4-hydroxybenzylidene)-4-methylbenzohydrazide derivatives as mTOR inhibitors that induce autophagic cell death and apoptosis in triple-negative breast cancer” (Eur J Med Chem, 2021).
Calls of active or inactive are those of the source. The rule behind the calls is not given here.

How the values were obtained:
MDA-MB-468 [1] = assay: (§1) Induction of apoptosis in human MDA-MB-468 cells assessed as viable cells at 10 uM pretreated with autophagy inhibitor, 3-methyladenine for 1 hr followed by incubation with compound and measured after 24 hrs by Annexin V-FITC/propidium iodide staining based flow cytometry (reference value: 93.6%); format: functional; settings: read-out: Activity
MDA-MB-468 [2] = assay: as §1, with “late apoptotic” for “viable”, “pretreated for 1 hr” for “pretreated”, “3-methyladenine” for “3-methyladenine for 1 hr”, “1.94%)” for “93.6%)”; format: functional; parameters: scale not given: the % may be the effect or the level left
MDA-MB-468 [3] = assay: Induction of apoptosis in human MDA-MB-468 cells assessed as increase in cleaved caspase 3 level at 2.5 to 10 uM incubated for 24 hrs by western blot analysis; format: functional, cell-based; settings: dose 2.5-10 µM
MDA-MB-231 = assay: Induction of autophagy in human MDA-MB-231 cells expressing mRFP-EGFP-LC3B at 5 uM measured after 24 hrs by fluorescence microscopic analysis; format: functional, cell-based

C/C(=N\NC(=O)c1cccc(Br)c1)c1ccc(C(=O)Nc2nc3ccccc3[nH]2)cc1
viability at 10 µM (MDA-MB-468 [1]): 81%
Activity (MDA-MB-468 [2]): 8.98%
Activity (MDA-MB-468 [3]): Active
Activity (MDA-MB-231): Active
